Laboratory results reported in ChEMBL document CHEMBL5696441 (Nat Chem Biol, 2011).

Columns and labels:
[1] = tested on: Receptor-type tyrosine-protein kinase FLT3 (Homo sapiens), P36888 [K663Q]; assay: Inhibition of FLT3 K663Q mutant (unknown origin) assessed as remaining activity at 1 uM by Kinome scan method relative to control
[2] = tested on: Receptor-type tyrosine-protein kinase FLT3 (Homo sapiens), P36888 [N841I]; assay: Inhibition of FLT3 N841I mutant (unknown origin) assessed as remaining activity at 1 uM by Kinome scan method relative to control
[3] = target: T1, Tyrosine-protein kinase JAK3 (Homo sapiens) (UniProt P52333); assay: Inhibition of human JAK3 assessed as residual activity at 1 uM using poly(Ala,Glu,Lys,Tyr)6:2:5:1 as substrate in presence of 33P-ATP by ProQinase assay relative to control
T1 sequence (whole entry): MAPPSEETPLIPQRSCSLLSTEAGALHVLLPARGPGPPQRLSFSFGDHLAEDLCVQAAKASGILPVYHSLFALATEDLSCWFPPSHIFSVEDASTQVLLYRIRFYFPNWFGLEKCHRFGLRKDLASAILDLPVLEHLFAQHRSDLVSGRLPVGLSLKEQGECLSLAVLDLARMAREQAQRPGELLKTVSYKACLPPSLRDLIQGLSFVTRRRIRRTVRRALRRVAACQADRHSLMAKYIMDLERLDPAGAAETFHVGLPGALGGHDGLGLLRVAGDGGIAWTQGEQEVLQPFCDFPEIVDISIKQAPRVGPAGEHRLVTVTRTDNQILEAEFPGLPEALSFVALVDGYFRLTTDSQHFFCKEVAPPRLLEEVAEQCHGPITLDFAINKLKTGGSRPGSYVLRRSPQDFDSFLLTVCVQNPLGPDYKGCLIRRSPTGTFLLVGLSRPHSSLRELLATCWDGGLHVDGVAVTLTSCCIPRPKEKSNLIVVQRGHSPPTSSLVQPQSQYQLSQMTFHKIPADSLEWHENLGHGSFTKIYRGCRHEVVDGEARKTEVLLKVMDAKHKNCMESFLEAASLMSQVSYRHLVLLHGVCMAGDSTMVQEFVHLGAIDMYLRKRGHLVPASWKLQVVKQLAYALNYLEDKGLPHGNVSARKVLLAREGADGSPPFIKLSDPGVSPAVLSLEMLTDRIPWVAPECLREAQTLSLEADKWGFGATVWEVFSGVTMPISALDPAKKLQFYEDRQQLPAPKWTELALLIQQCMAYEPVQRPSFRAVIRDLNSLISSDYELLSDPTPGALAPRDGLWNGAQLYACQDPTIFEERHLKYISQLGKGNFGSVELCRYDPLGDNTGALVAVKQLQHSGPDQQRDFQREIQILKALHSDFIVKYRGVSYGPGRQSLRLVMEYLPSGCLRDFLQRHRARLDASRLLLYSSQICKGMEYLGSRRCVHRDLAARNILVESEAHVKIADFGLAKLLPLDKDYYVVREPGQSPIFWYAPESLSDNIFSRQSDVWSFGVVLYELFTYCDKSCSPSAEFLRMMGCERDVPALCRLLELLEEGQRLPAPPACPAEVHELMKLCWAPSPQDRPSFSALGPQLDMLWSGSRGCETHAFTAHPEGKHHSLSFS

[4] = target: Death-associated protein kinase 3 (Homo sapiens) (UniProt O43293); assay: Inhibition of DAPK3 (unknown origin) assessed as remaining activity at 1 uM by Kinome scan method relative to control
Chain of Death-associated protein kinase 3 (Homo sapiens) (O43293 whole entry, looked up): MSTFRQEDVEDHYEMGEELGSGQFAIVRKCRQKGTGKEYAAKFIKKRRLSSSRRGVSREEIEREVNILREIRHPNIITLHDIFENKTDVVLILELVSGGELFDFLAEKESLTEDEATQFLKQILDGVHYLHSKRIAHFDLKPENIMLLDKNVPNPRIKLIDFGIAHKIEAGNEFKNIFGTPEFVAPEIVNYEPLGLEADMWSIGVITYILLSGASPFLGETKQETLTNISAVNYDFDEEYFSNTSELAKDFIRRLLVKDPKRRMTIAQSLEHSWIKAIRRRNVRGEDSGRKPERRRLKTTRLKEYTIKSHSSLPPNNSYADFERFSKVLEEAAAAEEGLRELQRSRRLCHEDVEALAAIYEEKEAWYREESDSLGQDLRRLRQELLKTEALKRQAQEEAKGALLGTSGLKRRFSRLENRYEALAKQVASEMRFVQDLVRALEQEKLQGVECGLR

[5] = target: Cyclin-dependent kinase 8 (Homo sapiens) (UniProt P49336); assay: Inhibition of CDK8 (unknown origin) assessed as remaining activity at 1 uM by Kinome scan method relative to control
Chain of Cyclin-dependent kinase 8 (Homo sapiens) (P49336 whole entry): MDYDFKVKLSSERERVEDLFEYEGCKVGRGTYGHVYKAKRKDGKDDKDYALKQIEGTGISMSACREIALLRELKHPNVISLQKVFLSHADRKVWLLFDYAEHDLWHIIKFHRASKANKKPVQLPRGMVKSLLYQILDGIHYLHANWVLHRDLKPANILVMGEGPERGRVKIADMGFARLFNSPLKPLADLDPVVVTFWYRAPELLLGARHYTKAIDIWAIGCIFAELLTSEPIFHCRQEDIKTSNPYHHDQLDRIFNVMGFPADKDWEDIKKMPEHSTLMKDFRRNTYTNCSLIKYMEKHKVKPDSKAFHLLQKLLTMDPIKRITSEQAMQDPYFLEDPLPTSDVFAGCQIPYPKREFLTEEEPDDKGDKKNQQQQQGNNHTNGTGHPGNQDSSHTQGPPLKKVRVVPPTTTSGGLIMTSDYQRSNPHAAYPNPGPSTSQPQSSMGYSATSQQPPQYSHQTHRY

[6] = tested on: Leucine-rich repeat serine/threonine-protein kinase 2 (Homo sapiens), Q5S007 [G2019S]; assay: Inhibition of human LRRK2 G2019S mutant assessed as residual activity at 1 uM using RBER-GSK3(14-27) as substrate in presence of 33P-ATP by ProQinase assay relative to control
[7] = Anti-inflammatory activity against human derived medium respond PBMC cells assessed as inhibition in stimulated IL-6 cytokine release incubated for 2 hrs in the presence of LPS/SEB/aCD28 by Luminex based sandwich immunoassay; type: functional, cell-based
[8] = target: Protein kinase C delta type (Homo sapiens) (UniProt Q05655); assay: Inhibition of human PKCdelta assessed as residual activity at 1 uM using 3xChocktide-PKC(19-31) as substrate in presence of 33P-ATP by ProQinase assay relative to control
Chain of Protein kinase C delta type (Homo sapiens) (Q05655 whole entry, looked up): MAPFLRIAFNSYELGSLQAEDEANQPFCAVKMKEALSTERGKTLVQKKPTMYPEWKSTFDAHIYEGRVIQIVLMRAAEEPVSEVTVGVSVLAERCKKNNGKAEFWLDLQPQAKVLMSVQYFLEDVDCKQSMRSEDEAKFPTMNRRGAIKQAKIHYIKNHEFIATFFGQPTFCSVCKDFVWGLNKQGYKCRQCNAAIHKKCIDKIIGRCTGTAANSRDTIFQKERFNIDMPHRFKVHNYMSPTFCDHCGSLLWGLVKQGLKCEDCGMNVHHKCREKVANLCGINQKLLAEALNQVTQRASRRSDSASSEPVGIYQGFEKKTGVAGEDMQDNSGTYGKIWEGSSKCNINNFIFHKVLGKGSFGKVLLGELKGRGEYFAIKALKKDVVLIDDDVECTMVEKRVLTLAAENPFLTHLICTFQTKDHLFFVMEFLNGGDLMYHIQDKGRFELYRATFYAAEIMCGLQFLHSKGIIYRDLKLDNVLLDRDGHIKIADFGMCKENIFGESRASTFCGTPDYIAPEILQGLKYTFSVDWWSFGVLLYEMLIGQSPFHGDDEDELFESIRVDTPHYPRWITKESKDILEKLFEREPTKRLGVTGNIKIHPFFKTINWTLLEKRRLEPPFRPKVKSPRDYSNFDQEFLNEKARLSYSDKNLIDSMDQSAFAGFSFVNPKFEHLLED

[9] = target: Serine/threonine-protein kinase Nek6 (Homo sapiens) (UniProt Q9HC98); assay: Inhibition of NEK6 (unknown origin) assessed as remaining activity at 1 uM by Kinome scan method relative to control
Chain of Serine/threonine-protein kinase Nek6 (Homo sapiens) (Q9HC98 whole entry): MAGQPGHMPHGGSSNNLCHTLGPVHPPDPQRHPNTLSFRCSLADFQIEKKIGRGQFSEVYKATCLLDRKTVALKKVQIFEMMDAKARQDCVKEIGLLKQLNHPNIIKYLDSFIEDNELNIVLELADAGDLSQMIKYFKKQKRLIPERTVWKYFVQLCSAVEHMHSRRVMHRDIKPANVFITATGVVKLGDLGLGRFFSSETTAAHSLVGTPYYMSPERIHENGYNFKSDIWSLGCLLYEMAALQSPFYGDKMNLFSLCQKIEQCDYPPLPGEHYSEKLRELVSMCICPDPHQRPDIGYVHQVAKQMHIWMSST

[10] = target: Receptor-interacting serine/threonine-protein kinase 1 (Homo sapiens) (UniProt Q13546); assay: Inhibition of RIPK1 (unknown origin) assessed as remaining activity at 1 uM by Kinome scan method relative to control
Chain of Receptor-interacting serine/threonine-protein kinase 1 (Homo sapiens) (Q13546 whole entry): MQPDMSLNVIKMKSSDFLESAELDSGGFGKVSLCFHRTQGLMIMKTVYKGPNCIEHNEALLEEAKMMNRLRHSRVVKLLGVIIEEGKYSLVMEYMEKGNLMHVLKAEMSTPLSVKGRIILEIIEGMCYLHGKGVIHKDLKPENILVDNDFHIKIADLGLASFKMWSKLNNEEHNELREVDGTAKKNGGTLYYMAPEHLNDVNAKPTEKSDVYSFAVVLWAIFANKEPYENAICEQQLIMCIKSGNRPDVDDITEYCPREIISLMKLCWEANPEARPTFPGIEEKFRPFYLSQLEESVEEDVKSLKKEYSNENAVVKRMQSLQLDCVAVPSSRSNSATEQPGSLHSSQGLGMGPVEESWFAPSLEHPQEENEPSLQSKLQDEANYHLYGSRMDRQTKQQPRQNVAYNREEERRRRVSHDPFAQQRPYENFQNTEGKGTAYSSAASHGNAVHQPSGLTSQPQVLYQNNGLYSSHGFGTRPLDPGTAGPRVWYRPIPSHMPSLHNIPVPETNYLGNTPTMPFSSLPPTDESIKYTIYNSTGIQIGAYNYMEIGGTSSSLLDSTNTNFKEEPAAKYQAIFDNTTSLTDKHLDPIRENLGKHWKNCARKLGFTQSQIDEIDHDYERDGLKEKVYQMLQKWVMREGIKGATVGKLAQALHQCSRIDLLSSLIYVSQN

[11] = target: Fibroblast growth factor receptor 2 (Homo sapiens) (UniProt P21802); assay: Inhibition of human FGFR2 assessed as residual activity at 1 uM using PolyEY as substrate in presence of 33P-ATP by ProQinase assay relative to control
Chain of Fibroblast growth factor receptor 2 (Homo sapiens) (P21802 22-821 limits assumed): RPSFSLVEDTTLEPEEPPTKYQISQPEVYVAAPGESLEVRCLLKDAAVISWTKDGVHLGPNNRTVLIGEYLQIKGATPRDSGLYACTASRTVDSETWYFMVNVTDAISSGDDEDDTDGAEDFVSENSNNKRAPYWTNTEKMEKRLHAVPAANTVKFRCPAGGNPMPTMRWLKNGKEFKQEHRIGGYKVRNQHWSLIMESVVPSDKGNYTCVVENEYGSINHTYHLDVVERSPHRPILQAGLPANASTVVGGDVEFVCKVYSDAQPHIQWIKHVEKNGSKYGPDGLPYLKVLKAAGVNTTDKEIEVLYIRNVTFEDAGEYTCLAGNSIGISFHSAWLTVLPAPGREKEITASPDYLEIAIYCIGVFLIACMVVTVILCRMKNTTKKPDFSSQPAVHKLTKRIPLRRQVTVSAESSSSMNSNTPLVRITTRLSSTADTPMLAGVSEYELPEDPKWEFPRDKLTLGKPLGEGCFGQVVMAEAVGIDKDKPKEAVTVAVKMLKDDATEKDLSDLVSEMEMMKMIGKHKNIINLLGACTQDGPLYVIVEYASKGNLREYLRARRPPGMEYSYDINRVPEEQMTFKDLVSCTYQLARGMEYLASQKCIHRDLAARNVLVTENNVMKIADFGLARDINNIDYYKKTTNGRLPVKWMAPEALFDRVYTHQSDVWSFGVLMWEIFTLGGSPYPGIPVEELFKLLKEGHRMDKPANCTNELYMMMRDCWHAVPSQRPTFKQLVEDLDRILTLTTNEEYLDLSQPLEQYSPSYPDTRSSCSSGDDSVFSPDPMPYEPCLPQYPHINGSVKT

[12] = target: Casein kinase I isoform gamma-3 (Homo sapiens) (UniProt Q9Y6M4); assay: Inhibition of CSNK1G3 (unknown origin) assessed as remaining activity at 1 uM by Kinome scan method relative to control
Chain of Casein kinase I isoform gamma-3 (Homo sapiens) (Q9Y6M4 whole entry, looked up, canonical isoform): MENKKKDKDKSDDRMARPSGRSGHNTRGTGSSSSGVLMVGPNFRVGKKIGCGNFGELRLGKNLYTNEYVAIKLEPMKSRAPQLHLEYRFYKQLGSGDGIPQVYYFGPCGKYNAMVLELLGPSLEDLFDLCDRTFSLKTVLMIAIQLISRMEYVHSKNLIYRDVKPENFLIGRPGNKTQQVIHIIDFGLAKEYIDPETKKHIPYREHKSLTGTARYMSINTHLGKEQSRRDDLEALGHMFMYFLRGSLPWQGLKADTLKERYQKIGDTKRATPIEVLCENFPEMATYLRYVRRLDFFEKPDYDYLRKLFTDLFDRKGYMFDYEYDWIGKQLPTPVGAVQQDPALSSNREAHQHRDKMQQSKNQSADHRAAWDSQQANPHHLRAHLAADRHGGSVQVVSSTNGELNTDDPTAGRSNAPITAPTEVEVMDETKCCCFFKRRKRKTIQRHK

[13] = target: T2, Homeodomain-interacting protein kinase 4 (Homo sapiens) (UniProt Q8NE63); assay: Inhibition of human HIPK4 assessed as residual activity at 1 uM using RBER-IRStide as substrate in presence of 33P-ATP by ProQinase assay relative to control
T2 sequence (whole entry): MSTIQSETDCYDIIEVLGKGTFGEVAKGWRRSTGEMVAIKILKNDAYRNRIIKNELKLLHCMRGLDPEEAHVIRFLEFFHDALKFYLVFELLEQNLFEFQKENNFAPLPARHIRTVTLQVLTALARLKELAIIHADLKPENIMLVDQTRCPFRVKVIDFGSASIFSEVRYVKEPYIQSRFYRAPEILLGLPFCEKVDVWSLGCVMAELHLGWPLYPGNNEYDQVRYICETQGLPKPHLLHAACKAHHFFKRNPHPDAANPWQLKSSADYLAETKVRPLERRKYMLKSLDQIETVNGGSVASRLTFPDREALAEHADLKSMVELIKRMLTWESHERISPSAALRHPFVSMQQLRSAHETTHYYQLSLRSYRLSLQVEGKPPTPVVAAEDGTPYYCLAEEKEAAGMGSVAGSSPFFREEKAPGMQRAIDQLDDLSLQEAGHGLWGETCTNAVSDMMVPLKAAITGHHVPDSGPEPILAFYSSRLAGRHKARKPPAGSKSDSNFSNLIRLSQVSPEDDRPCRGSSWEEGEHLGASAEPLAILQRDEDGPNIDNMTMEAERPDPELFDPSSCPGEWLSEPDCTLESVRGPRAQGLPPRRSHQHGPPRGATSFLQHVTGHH

[14] = target: Vascular endothelial growth factor receptor 2 (Homo sapiens) (UniProt P35968); assay: Inhibition of VEGFR2 (unknown origin) assessed as remaining activity at 1 uM by Kinome scan method relative to control

Compound: O=C1c2ccc(Nc3ccc(F)cc3F)cc2CCc2ccc(OC[C@H](O)CO)cc21 [Skepinone-L]
- Activity [1]: 98%
- Activity [2]: 96%
- Activity [3]: 103%
- Activity [4]: 100%
- Activity [5]: 100%
- Activity [6]: 77%
- IC50 [7]: 780 nM
- Activity [8]: 104%
- Activity [9]: 100%
- Activity [10]: 100%
- Activity [11]: 125%
- Activity [12]: 100%
- Activity [13]: 116%
- Activity [14]: 100%
